Measured values reported in ChEMBL document CHEMBL1201862, “PubChem BioAssay data set” (2004).
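Step 1: Grow cells in 96-well plates. Step 2: Expose to compound for 48 hours at 5 concentrations. Step 3: Interpolate endpoints linearly; if unreached, use highest concentration. GI50 = concentration required for 50% inhibition of growth.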 Active and inactive are the calls of the source. No stated cut-off is given here; in the data, active = GI50 up to about 1.1 µM and inactive = higher.

Key:
Test in all cases: inhibition of tumour cell growth, NCI panel, 48 h
[1] = test system: SNB-75
[2] = test system: HOP-62
[3] = test system: HCT-15
[4] = test system: K562
[5] = test system: OVCAR-8
[6] = test system: NCI-H522
[7] = test system: HCC 2998
[8] = test system: MCF7
[9] = test system: SW-620
[10] = test system: KM12
[11] = test system: A549
[12] = test system: MOLT-4
[13] = test system: A498
[14] = test system: HCT-116
[15] = test system: MDA-N
[16] = test system: LOX IMVI
[17] = test system: SNB-19
[18] = test system: EKVX
[19] = test system: SF-539
[20] = test system: OVCAR-4
[21] = test system: OVCAR-3
[22] = test system: U-251
[23] = test system: NCI-H23
[24] = test system: NCI-H226
[25] = test system: SK-MEL-2
[26] = test system: SN12C
[27] = test system: MDA-MB-231
[28] = test system: PC-3
[29] = test system: MDA-MB-435
[30] = test system: BT-549
[31] = test system: COLO 205
[32] = test system: Hs-578T
[33] = test system: IGROV-1
[34] = test system: HOP-92
[35] = test system: SK-MEL-5
[36] = test system: NCI/ADR-RES
[37] = test system: ACHN
[38] = test system: UO-31
[39] = test system: SK-MEL-28
[40] = test system: SR
[41] = test system: M14
[42] = test system: CCRF-CEM
[43] = test system: Malme-3M
[44] = test system: DU-145
[45] = test system: UACC-62
[46] = test system: SF-295
[47] = test system: 786-0
[48] = test system: RXF 393
[49] = test system: T47D
[50] = test system: OVCAR-5
[51] = test system: RPMI-8226
[52] = test system: SF-268
[53] = test system: HT-29
[54] = test system: HL-60
[55] = test system: UACC-257
[56] = test system: TK-10
[57] = test system: SK-OV-3
[58] = test system: NCI-H460
[59] = test system: CAKI-1

Measured: GI50

CCCCCCCCCCCCNC(=O)CCC(NC(=O)c1ccc(N(C)Cc2cnc3nc(N)nc(N)c3n2)cc1)C(=O)NCCCCCCCCCCCC (stereo not drawn)
inactive: [1] 3.68 µM | [2] 23.6 µM | [4] 18.5 µM | [5] 16.9 µM | [6] > 100 µM | [7] 45.7 µM | [8] 30.6 µM | [9] 29.6 µM | [10] 46.7 µM | [11] > 100 µM | [12] > 100 µM | [13] 42.8 µM | [14] 26.6 µM | [15] 41.7 µM | [16] 17 µM | [17] 22.9 µM | [18] > 100 µM | [19] > 100 µM | [20] 64.1 µM | [21] 31.5 µM | [22] 12.3 µM | [23] 53.3 µM | [24] > 100 µM | [25] 30 µM | [26] 91.8 µM | [27] 10.1 µM | [28] > 100 µM | [29] 52.8 µM | [30] 41.2 µM | [31] > 100 µM | [32] 27.2 µM | [33] 36.1 µM | [34] 9.44 µM | [35] > 100 µM | [36] > 100 µM | [37] > 100 µM | [38] > 100 µM | [39] 43.3 µM | [40] 11.9 µM | [41] 56.5 µM | [42] 25.8 µM | [43] 95.5 µM | [44] > 100 µM | [45] 55.5 µM | [46] 25.4 µM | [47] 22.6 µM | [48] 18.4 µM | [49] 24.4 µM | [50] > 100 µM | [51] > 100 µM | [52] 78.3 µM | [53] > 100 µM | [54] 31.8 µM | [55] > 100 µM | [56] 38.3 µM
> 100000 nM: [3]

COC1/C=C/C(C)C(OC)CC(O)/C=C/C(C)C(C(C)C(OC)C(C)CCC(=O)C(C)C(C/C=C/N(C)C=O)OC)OC(=O)/C=C/C=C(\C)CC(OC)C(OC)C2=CC(=O)O[C@@H](C(C)C(OC)C1)[C@H]2O (stereo partly drawn)
15 nM: [3]
active: [1] 0.034 µM | [2] 0.0324 µM | [5] 0.0514 µM | [6] 0.0295 µM | [7] 0.0182 µM | [8] 0.0251 µM | [9] 0.0361 µM | [57] 43.6 nM | [10] 0.0399 µM | [11] 0.0518 µM | [58] 17.2 nM | [12] 0.0681 µM | [13] 0.0289 µM | [14] 0.00847 µM | [15] 0.0507 µM | [16] 0.00791 µM | [17] 0.0519 µM | [18] 0.08 µM | [19] 0.0313 µM | [20] 0.0421 µM | [21] 0.00596 µM | [22] 0.0303 µM | [23] 0.0512 µM | [24] 0.0194 µM | [26] 0.0498 µM | [27] 0.0366 µM | [28] 0.0337 µM | [29] 0.0532 µM | [30] 0.0578 µM | [31] 0.0205 µM | [32] 0.0307 µM | [59] 14.8 nM | [33] 0.0341 µM | [34] 0.0327 µM | [35] 0.0387 µM | [36] 0.0522 µM | [37] 0.0367 µM | [38] 0.0419 µM | [39] 0.0446 µM | [40] 0.0617 µM | [41] 0.0384 µM | [42] 0.0499 µM | [43] 0.04 µM | [44] 0.0959 µM | [45] 0.0571 µM | [46] 0.0345 µM | [47] 0.0442 µM | [48] 0.039 µM | [49] 0.0571 µM | [50] 0.0479 µM | [51] 0.346 µM | [52] 0.0442 µM | [53] 0.0356 µM | [54] 0.0299 µM | [55] 0.0448 µM | [56] 0.0548 µM
